Experimental data: patent US9718816B2, “1-phenoxy-3-(alkylamino)-propan-2-ol derivatives as CARM1 inhibitors and uses thereof” (Epizyme, Inc., priority 2013, dated 2017)

Key:
[1] = test system: asymmetric di-methyl PABP1 in RKO cells; experiment: RKO methylation assay (In Cell Western, asymmetric di-methyl PABP1); type: cell-based; conditions: Homo sapiens, 48 hours incubation, read-out: Cellular IC50
From the text: RKO adherent cells were purchased from ATCC (American Type Culture Collection), Manassas, Va., USA. DMEM/Glutamax medium, penicillin-streptomycin, heat inactivated fetal bovine serum, 0.05% trypsin and D-PBS were purchased from Life Technologies, Grand Island, N.Y., USA. Odyssey blocking buffer, 800CW goat anti-rabbit IgG (H+L) antibody, and Licor Odyssey infrared scanner were purchased from Licor Biosciences, Lincoln, Nebr., USA. Asymmetric di-methyl PABP1 antibody was purchased from Cell Signaling Technology, Danvers, Mass., USA. Methanol was purchased from VWR, Franklin, Mass., USA. 10% Tween 20 was purchased from KPL, Inc., Gaithersburg, Md., USA. Paraformaldehyde (PFA) was purchased from EM Sciences. DRAQ5 was purchased from Biostatus Limited, Leicestershire, UK. […]
Calculations. First, the ratio for each well was determined by:
Each plate included fourteen control wells of DMSO only treatment (minimum inhibition) as well as fourteen control wells for maximum inhibition treated with 20 μM of a reference compound. The average of the ratio values for each control type was calculated and used to determine the percent […] for each test well in the plate. […]
Percent inhibition was determined and IC50 curves were generated using triplicate wells per concentration of compound.

[2] = target: T1, CARM1 (Homo sapiens, UniProt Q86X55); experiment: CARM1 enzyme assay on peptide substrate (3H-SAM Flashplate); type: biochemical; conditions: CARM1 0.25 nM, 3H-SAM 30 nM, peptide 250 nM, 30 min preincubation; read-out: Biochem IC50
T1 construct: Flag-CARM1-His; made in house; host or cells: HEK 293F cells infected with recombinant baculovirus (pFastBacMam)
T1 sequence (Q86X55 1-585 isoform Q86X55-1): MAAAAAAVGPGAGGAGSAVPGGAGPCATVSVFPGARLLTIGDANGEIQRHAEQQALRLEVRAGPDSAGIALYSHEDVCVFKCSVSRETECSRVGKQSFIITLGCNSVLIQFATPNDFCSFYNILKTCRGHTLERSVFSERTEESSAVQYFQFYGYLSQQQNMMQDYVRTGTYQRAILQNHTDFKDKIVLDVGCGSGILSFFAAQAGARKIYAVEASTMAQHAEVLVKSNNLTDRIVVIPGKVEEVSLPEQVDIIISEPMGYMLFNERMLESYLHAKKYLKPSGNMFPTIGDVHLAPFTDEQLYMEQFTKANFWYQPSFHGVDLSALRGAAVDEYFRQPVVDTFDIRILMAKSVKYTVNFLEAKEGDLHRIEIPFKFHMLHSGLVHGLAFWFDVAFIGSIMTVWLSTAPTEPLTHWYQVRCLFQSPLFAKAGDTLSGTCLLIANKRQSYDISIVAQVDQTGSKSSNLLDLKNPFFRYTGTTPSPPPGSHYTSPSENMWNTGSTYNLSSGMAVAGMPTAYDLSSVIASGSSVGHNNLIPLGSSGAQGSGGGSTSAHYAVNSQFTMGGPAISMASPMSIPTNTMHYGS
From the text: S-adenosylmethionine (SAM), S-adenosylhomocysteine (SAH), bicine, Tween20, dimethylsulfoxide (DMSO), bovine skin gelatin (BSG), sodium butyrate and Tris(2-carboxyethyl)phosphine hydrochloride solution (TCEP) were purchased from Sigma-Aldrich at the highest level of purity possible. ^3H-SAM was purchase from American Radiolabeled Chemicals with a specific activity of 80 Ci/mmol. 384-well streptavidin Flashplates were purchased from PerkinElmer.
Peptide representative of human histone H3 residues 16-30 was synthesized with an N-terminal linker-affinity tag motif and a C-terminal amide cap by 21^St Century Biochemicals. The peptide was purified by high-performance liquid chromatography (HPLC) to greater than 95% purity and confirmed by liquid chromatography mass spectrometry (LC-MS). The sequence was Biot-Ahx-[…]-amide and contained a monomethylated arginine at position 26 (SEQ ID NO.:1).
Human CARM1 (PRMT4) (NM_199141.1) transcript clone was amplified from an HEK 293 cDNA library, incorporating a flanking 5′ sequence encoding a FLAG tag ([…]) (SEQ ID NO.:2) fused directly to Ala 2 of CARM1 and 3′ sequence encoding a hexa His sequence ([…]) (SEQ ID NO.:3) fused directly to Ser 608. The gene sequence encoding isoform1 containing a deletion of amino acids 539-561 was amplified subsequently and subcloned into pFastBacMam (Viva Biotech). Protein Expression
Recombinant baculovirus were generated according to Bac-to-Bac kit instructions (Life Technologies). Protein over-expression was accomplished by infecting exponentially growing HEK 293F cell culture at 1.3×10^6 cell/ml with virus (MOI=10) in the presence of 8 mM sodium butyrate. Infections were carried out at 37° C. for 48 hours, harvested by centrifugation, and stored at −80° C. for purification.
Column was washed with 500 mM NaCl in buffer A and Flag-CARM1-His was eluted with 200 ug/ml FLAG peptide in buffer A. Pooled fractions were dialyzed in 20 mM Tris, 150 mM NaCl, 5% glycerol and 1 mM DTT, pH 7.8. The purity of recovered protein was 94.
General Procedure for CARM1 Enzyme Assays on Peptide Substrates
The assays were all performed in a buffer consisting of 20 mM Bicine (pH=7.6), 1 mM TCEP, 0.005% BSG, and 0.002% Tween 20, prepared on the day of use. Compounds in 100% DMSO (1 ul) were spotted into a polypropylene 384-well V-bottom plates (Greiner) using a Platemate Plus outfitted with a 384-channel head (Thermo Scientific). DMSO (1 ul) was added to Columns 11, 12, 23, 24, rows A-H for the maximum signal control and 1 ul of SAH, a known product and inhibitor of CARM1, was added to columns 11, 12, 23, 24, rows I-P for the minimum signal control. A cocktail (40 ul) containing the CARM1 enzyme was added by Multidrop Combi (Thermo-Fisher). The compounds were allowed to incubate with CARM1 for 30 min at room temperature, then a cocktail (10 ul) containing ^3H-SAM and peptide was added to initiate the reaction (final volume=51 ul). The final concentrations of the components were as follows: CARM1 was 0.25 nM, ^3H-SAM was 30 nM, peptide was 250 nM, SAH in the minimum signal control wells was 1 mM, and the DMSO concentration was 2%. The assays were stopped by the addition of non-radiolabeled SAM (10 ul) to a final concentration of 300 uM, which dilutes the ^3H-SAM to a level where its incorporation into the peptide substrate is no longer detectable. 50 ul of the reaction in the 384-well polypropylene plate was then transferred to a 384-well Flashplate and the biotinylated peptides were allowed to bind to the streptavidin surface for at least 1 hour before being washed once with 0.1% Tween20 in a Biotek ELx405 plate washer. The plates were then read in a PerkinElmer TopCount plate reader to measure the quantity of ^3H-labeled peptide bound to the Flashplate surface, measured as disintegrations per minute (dpm) or alternatively, referred to as counts per minute (cpm). […]

CNCC(O)COc1cc(OC)cc(-c2cc(N3CCOCC3)n3ncc(C4CC4)c3n2)c1 (centres unmarked) [Example 18-6]
IC50 [1]: 5000 to 10000 nM

CNCC(O)COc1cccc(-c2cc(NCCCCCCNC(=O)c3cccnc3)c3cnn(C(C)C)c3n2)c1 (centres unmarked) [Example 65-1]
IC50 [2]: 100 to 1000 nM

CNCC(O)COc1cccc(-c2cc(N)c3cnn(C(C)C)c3n2)c1 (centres unmarked) [Example 4-1]
IC50 [2]: 1000 to 3000 nM

CNCC(O)COc1cccc(-c2cc(NC(=O)N(C)C)c3cnn(C(C)C)c3n2)c1 (centres unmarked) [Example 21-1]
IC50 [2]: 100 to 1000 nM

CNCC(O)COc1cccc(-c2cc(NCC(=O)OC)c3cnn(C(C)C)c3n2)c1 (centres unmarked) [Example 23-1]
IC50 [2]: 100 to 1000 nM

CNCC(O)COc1cccc(-c2cc(N(C)Cc3ccccn3)c3cnn(C(C)C)c3n2)c1 (centres unmarked) [Example 44-1]
IC50 [2]: 100 to 1000 nM

CCNCC(O)COc1cccc(-c2cc(N3CCOCC3)c3cnn(C(C)C)c3n2)c1 (centres unmarked) [Example 31-1]
IC50 [2]: < 100 nM

CNCC(O)COc1cccc(-c2cc(NCCNC(=O)c3cccnc3)c3cnn(C(C)C)c3n2)c1 (centres unmarked) [Example 56-1]
IC50 [2]: 100 to 1000 nM

CNCC(O)COc1cccc(-c2cc(NCCCN)c3cnn(C(C)C)c3n2)c1 (centres unmarked) [Example 15-1]
IC50 [2]: 100 to 1000 nM

CNCC(O)COc1cccc(-c2cc(NCCCNC(=O)c3cccnc3)c3cnn(C(C)C)c3n2)c1 (centres unmarked) [Example 59-1]
IC50 [2]: 100 to 1000 nM

CNCC(O)COc1cccc(-c2cc(NCCCCNC(=O)c3ccn(C)n3)c3cnn(C(C)C)c3n2)c1 (centres unmarked) [Example 62-1]
IC50 [2]: 100 to 1000 nM

CC(C)n1ncc2c(NS(=O)(=O)N(C)C)cc(-c3cccc(OCC(O)CN)c3)nc21 (centres unmarked) [Example 36-1]
IC50 [2]: < 100 nM

CCOC(=O)Nc1cc(-c2cccc(OCC(O)CN)c2)nc2c1cnn2C(C)C (centres unmarked) [Example 17-1]
IC50 [2]: 100 to 1000 nM

CC(C)n1ncc2c(N3CCOCC3)cc(-c3cccc(OC[C@@H](O)CN)c3)nc21 [Example 12-1]
IC50 [2]: 100 to 1000 nM
